The values that follow come from US20140221499A1, “NOVEL RODENT CONTROL AGENTS AND USES THEREOF” (priority 2011, published 2014).

Common to all, as to assay type: cell-based
The target in one assay is T1, rTAAR7b (Rattus norvegicus, UniProt Q923X8).
T1 sequence (Q923X8 1-358): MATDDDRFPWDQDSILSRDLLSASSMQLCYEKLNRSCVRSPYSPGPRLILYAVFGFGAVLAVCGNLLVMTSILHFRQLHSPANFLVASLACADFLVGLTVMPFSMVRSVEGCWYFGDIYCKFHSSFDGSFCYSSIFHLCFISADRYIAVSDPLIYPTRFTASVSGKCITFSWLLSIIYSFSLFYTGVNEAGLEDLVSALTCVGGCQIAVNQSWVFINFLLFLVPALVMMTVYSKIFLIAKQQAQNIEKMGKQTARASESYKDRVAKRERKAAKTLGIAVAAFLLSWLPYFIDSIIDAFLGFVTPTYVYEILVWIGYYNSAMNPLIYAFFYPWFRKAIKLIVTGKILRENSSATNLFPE
Nature of the assay: TAAR reporter gene assay, rTAAR7b. Details: Full Taar coding regions were cloned into pcDNA3.1-(Invitrogen); expressed in transfected cells; host or cells: HEK293. From the text: (§1) Here, we set out to identify agonists for additional mouse and rat TAARs. We examined odor response profiles using a previously established reporter gene assay based on cAMP-dependent odor transduction in olfactory sensory neurons (40, 42). Briefly, TAAR plasmids were transfected into HEK293 cells along with a cAMP-dependent reporter gene encoding secreted alkaline phosphatase (CRE-SEAP). TAARs were expressed both in unmodified form and as fusion proteins with an N-terminal sequence of bovine rhodopsin (‘Rho tag’) that promotes cell surface expression of some chemosensory receptors (35). Transfected cells were incubated with test chemicals, and phosphatase activity was quantified with a fluorescent substrate as a reporter for TAAR activation. In initial experiments, we tested 38 different odorant mixtures containing 244 structurally diverse test chemicals (2-5 μM) for the ability to activate each mTAAR. Subsequently, we tested 73 amines that included known mTAAR agonists and related chemicals for the ability to activate each rTAAR.
(§2) TAAR functional assays. […] Fluorescence was measured on an EnVision plate reader (Perkin Elmer) and SEAP activity graphed as relative fluorescence of a phosphatase substrate.

The target of another assay is T2, mTAAR7f (Mus musculus, UniProt Q5QD08).
T2 sequence (Q5QD08 1-358): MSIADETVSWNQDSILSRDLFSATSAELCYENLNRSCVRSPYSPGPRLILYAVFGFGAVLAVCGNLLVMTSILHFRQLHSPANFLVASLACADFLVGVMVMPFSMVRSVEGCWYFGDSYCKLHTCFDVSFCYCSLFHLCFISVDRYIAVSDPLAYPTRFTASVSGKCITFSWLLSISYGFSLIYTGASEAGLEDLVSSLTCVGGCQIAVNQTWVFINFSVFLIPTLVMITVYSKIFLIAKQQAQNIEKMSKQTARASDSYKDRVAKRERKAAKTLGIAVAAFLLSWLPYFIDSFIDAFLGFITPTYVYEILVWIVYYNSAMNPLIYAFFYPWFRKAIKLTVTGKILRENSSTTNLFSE
Nature of the assay: TAAR reporter gene assay, mTAAR7f. Details: Full Taar coding regions were cloned into pcDNA3.1-(Invitrogen); Rho tag (first 20 aa of bovine rhodopsin + linker); expressed in transfected cells; host or cells: HEK293.
Text: as §1, with “Subsequently, we tested 73 amines that included known mTAAR agonists and related chemicals for the ability to activate each rTAAR.” left out
as §2
TAAR functional assays. […] SEAP activity is measured as fluorescence resulting from dephosphorylation of a substrate, 4-methylumbelliferyl phosphate. Fluorescence values were obtained using an EnVision plate reader (Perkin Elmer) and are reported directly without normalization. […]

For the next assay, the target named is T3, mTAAR7f-SS (Mus musculus, UniProt Q5QD08, C133S/Y132S).
T3 construct: Full Taar coding regions were cloned into pcDNA3.1-(Invitrogen); Rho tag (first 20 aa of bovine rhodopsin + linker); expressed in transfected cells; host or cells: HEK293
T3 sequence (Q5QD08 1-358 Y132S/C133S): T2 sequence (Q5QD08 1-358) with Y132S, C133S
Description: Reporter gene assay on mutant receptor mTAAR7f-SS. The settings on record: mutant vs mTAAR7f. The procedure: To test this, we created mutant receptors in which sequences of mTAAR7e were swapped into mTAAR7f and vice versa. Position 132^3.37 is a tyrosine in mTAAR7f and the other three receptors that detect 10, but a serine in mTAAR7e and a cysteine in rTAAR7h, the two receptors that detect 6. Furthermore, position 133^3.38 is a cysteine in mTAAR7f but a serine in mTAAR7e and rTAAR7h. We altered positions 132^3.37 and 133^3.38 by mutation of mTAAR7e (‘mTAAR7e-YC’) and mTAAR7f (‘mTAAR7f-SS’) and examined odor responses of these mutants using the cellular reporter gene assay (FIG. 9).
TAAR functional assays. Full Taar coding regions were cloned into pcDNA3.1-(Invitrogen) with or without a 5′ DNA extension of 69 bp encoding the first 20 amino acids of bovine rhodopsin followed by a cloning linker ([…]). Point mutations were introduced in mTAAR7e and mTAAR7f by overlap extension PCR. Functional assays were performed as described (40, 42). Fluorescence was measured on an EnVision plate reader (Perkin Elmer) and SEAP activity graphed as relative fluorescence of a phosphatase substrate.

SMILES strings stand for the structures. Residue numbers refer to the chain shown, from its start.

On to `CN(C)CCc1ccccc1` [ligand 6, N,N-dimethyl-2-phenylethylamine], for which, at rTAAR7b, the rTAAR7b activation entry is listed as “not”. Further, at mTAAR7f, the mTAAR7f activation entry was “not”.
Consider `CN(C)C1CCCCC1` [ligand 10, N,N-dimethylcyclohexylamine], for which, at mTAAR7f-SS, the “reduced affinity of mTAAR7f-SS” value is roughly 100 fold. For the same compound, the rTAAR7b activation result on rTAAR7b was “activated”. In addition, the mTAAR7f activation result at mTAAR7f was “activated”.
